Results: article PMC7069944, “Amino acid levels determine metabolism and CYP450 function of hepatocytes and hepatoma cell lines” (Nature Communications, 2020)
“And” between values parts separate entries of the source, which are not always exact repeats. Equal values may be shown once.

Legend:
HC3X = assay: Repeated-exposure DILI training compounds, resazurin conversion, HC3X; conditions: for resazurin conversion (Supplementary Figure 7D): HC3X AAGLY D40, replicates, listed as Triglitazone
Outline: (§1)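 Hepatotoxicity prediction used a miniaturized 384-well differentiation setup, scoring viability through resazurin reduction relative to Cmax.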

HLC = assay: Repeated-exposure DILI training compounds, resazurin conversion, HLC; conditions: replicates, listed as Triglitazone
Outline: as §1

HC6X = assay: Repeated-exposure DILI training compounds, resazurin conversion, HC6X; conditions: replicates, listed as Triglitazone
Outline: as §1

HepG2 = assay: Repeated-exposure DILI training compounds, resazurin conversion, HepG2; conditions: replicates, listed as Triglitazone
Outline: as §1

Structure (SMILES): Cc1c(C)c2c(c(C)c1O)CCC(C)(COc1ccc(CC3SC(=O)NC3=O)cc1)O2 (centres unmarked) [troglitazone]
- resazurin conversion (Supplementary Figure 7D) (HC3X; 3 uM): 100.4 and 118.6 and 117.6 and 139.7 and 113 and 95.6
- resazurin conversion (Supplementary Figure 7D) (HC3X; 5 uM): 108.1 and 113 and 110 and 124 and 122.3 and 125.6
- resazurin conversion (Supplementary Figure 7D) (HC3X; 10 uM): 64.3 and 64.1 and 94.3 and 59.1 and 78.4 and 71.8
- resazurin conversion (Supplementary Figure 7D) (HC3X; 30 uM): 7.7 (3×) and 7.6 (2×) and 7.8
- resazurin conversion (Supplementary Figure 7D) (HC3X; 50 uM): 7.8 (4×) and 7.7 and 7.9
- resazurin conversion (Supplementary Figure 7D) (HC3X; 100 uM): 7.7 and 7.9 (2×) and 8 (2×) and 7.8
- resazurin conversion (Supplementary Figure 7D) (HC3X; 300 uM): 8.6 (2×) and 8.5 and 8.4 and 8.7 and 8.3
- resazurin conversion (Supplementary Figure 7D) (HC3X; 600 uM): 8.6 and 9 and 8.5 and 8.7 and 8.8 and 9.1
- resazurin conversion (Supplementary Figure 7D) (HC3X; 1200 uM): 8.5 and 8.9 and 8.6 (2×) and 8.8 and 9
- IC50/Cmax (HC3X; human): 1.6
- resazurin conversion (Supplementary Figure 7D) (HLC; HLC AAGLY D40, 5 uM): 153.5 and 121.4 and 146 and 101.6 and 123.2 and 125.5
- resazurin conversion (Supplementary Figure 7D) (HLC; HLC AAGLY D40, 10 uM): 135.4 and 92.9 and 151 and 74.5 and 125.5 and 149.7
- resazurin conversion (Supplementary Figure 7D) (HLC; HLC AAGLY D40, 30 uM): 16.5 and 14.5 and 14 and 11.9 and 15.8 and 12.7
- resazurin conversion (Supplementary Figure 7D) (HLC; HLC AAGLY D40, 50 uM): 11.8 (3×) and 11.4 (2×) and 11.7
- resazurin conversion (Supplementary Figure 7D) (HLC; HLC AAGLY D40, 100 uM): 11.9 (2×) and 12.3 and 12.2 and 12.1 (2×)
- resazurin conversion (Supplementary Figure 7D) (HLC; HLC AAGLY D40, 300 uM): 12.4 and 12.8 (2×) and 12.6 (2×) and 12.7
- resazurin conversion (Supplementary Figure 7D) (HLC; HLC AAGLY D40, 600 uM): 13.8 (2×) and 13.7 and 13.2 and 13.4 and 13.6
- resazurin conversion (Supplementary Figure 7D) (HLC; HLC AAGLY D40, 1200 uM): 14.9 and 14.8 and 14.3 and 15 and 14.7 and 14.5
- resazurin conversion (Supplementary Figure 7D) (HLC; HLC LDM D40, 3 uM): 124.9 and 86.8 and 81.1 and 83.4
- resazurin conversion (Supplementary Figure 7D) (HLC; HLC LDM D40, 5 uM): 112.5 and 109.2 and 104.5 and 65.4 and 87.8 and 121.6
- resazurin conversion (Supplementary Figure 7D) (HLC; HLC LDM D40, 10 uM): 119.2 and 88.2 and 119.3 and 84.6 and 119 and 129.3
- resazurin conversion (Supplementary Figure 7D) (HLC; HLC LDM D40, 30 uM): 64.9 and 19.9 and 24.5 and 26.5 and 51.6 and 125
- resazurin conversion (Supplementary Figure 7D) (HLC; HLC LDM D40, 50 uM): 9.4 and 9.5 and 9.6 and 12.8 and 134 and 114.9
- resazurin conversion (Supplementary Figure 7D) (HLC; HLC LDM D40, 100 uM): 9.6 and 9.9 and 9.7 and 9.4 and 10.4 and 10.1
- resazurin conversion (Supplementary Figure 7D) (HLC; HLC LDM D40, 300 uM): 10.1 (2×) and 10.3 and 9.6 and 10 and 10.2
- resazurin conversion (Supplementary Figure 7D) (HLC; HLC LDM D40, 600 uM): 10.4 and 10.5 and 10.2 (2×) and 10.8 and 11.3
- resazurin conversion (Supplementary Figure 7D) (HLC; HLC LDM D40, 1200 uM): 11.2 (3×) and 11.3 and 11.1 and 11.5
- resazurin conversion (Supplementary Figure 7D) (HC6X; HC6X AAGLY D40, 3 uM): 67.6 and 80.5 and 115.9 and 110.8
- resazurin conversion (Supplementary Figure 7D) (HC6X; HC6X AAGLY D40, 5 uM): 97.5 and 124.6 and 75.2 and 88 and 91.2 and 78.9
- resazurin conversion (Supplementary Figure 7D) (HC6X; HC6X AAGLY D40, 10 uM): 28.6 and 26.8 and 51 and 28.8 and 31.8 and 23.3
- resazurin conversion (Supplementary Figure 7D) (HC6X; HC6X AAGLY D40, 30 uM): 17.6 and 19.6 and 21.9 and 19.3 and 17.4 and 18.4
- resazurin conversion (Supplementary Figure 7D) (HC6X; HC6X AAGLY D40, 50 uM): 18.5 and 22.2 and 22.6 and 19.7 and 17.5 and 18.3
- resazurin conversion (Supplementary Figure 7D) (HC6X; HC6X AAGLY D40, 100 uM): 17.7 (2×) and 19.3 and 19.5 and 17.5 and 18.3
- resazurin conversion (Supplementary Figure 7D) (HC6X; HC6X AAGLY D40, 300 uM): 18.9 and 19.1 and 19.4 (2×) and 19.9 and 18.8
- resazurin conversion (Supplementary Figure 7D) (HC6X; HC6X AAGLY D40, 600 uM): 20.5 and 21.3 and 23.4 and 22.4 (2×) and 23.3
- resazurin conversion (Supplementary Figure 7D) (HC6X; HC6X AAGLY D40, 1200 uM): 19.6 and 19.4 and 20.1 and 19.9 and 18.6 and 18.9
- resazurin conversion (Supplementary Figure 7D) (HC6X; HC6X AAGLY D40 Remove dox, 5 uM): 197.5 and 139.5 and 221.6 and 148.2 and 134.8 and 149.8
- resazurin conversion (Supplementary Figure 7D) (HC6X; HC6X AAGLY D40 Remove dox, 10 uM): 133 and 100.2 and 218.5 and 104.9 and 119 and 93.7
- resazurin conversion (Supplementary Figure 7D) (HC6X; HC6X AAGLY D40 Remove dox, 30 uM): 24.4 and 26.5 and 25.9 (2×) and 27.1 and 24.9
- resazurin conversion (Supplementary Figure 7D) (HC6X; HC6X AAGLY D40 Remove dox, 50 uM): 23.5 (2×) and 23.1 and 23.9 and 23.4 and 23.3
- resazurin conversion (Supplementary Figure 7D) (HC6X; HC6X AAGLY D40 Remove dox, 100 uM): 24.4 and 24.5 and 24 and 23.7 and 23.5 and 24.2
- resazurin conversion (Supplementary Figure 7D) (HC6X; HC6X AAGLY D40 Remove dox, 300 uM): 25.6 and 24.8 (2×) and 25 (2×) and 24.6
- resazurin conversion (Supplementary Figure 7D) (HC6X; HC6X AAGLY D40 Remove dox, 600 uM): 26.9 and 26.7 and 26.1 (2×) and 25.7 and 26.3
- resazurin conversion (Supplementary Figure 7D) (HC6X; HC6X AAGLY D40 Remove dox, 1200 uM): 28.5 (2×) and 27.6 and 27.4 and 27.9 and 28.4
- resazurin conversion (Supplementary Figure 7D) (HepG2; HepG2 AAGLY D30, 3 uM): 98.3 and 94.5 and 92
- resazurin conversion (Supplementary Figure 7D) (HepG2; HepG2 AAGLY D30, 5 uM): 68.5 and 110.9 and 79 and 93.8 and 74.1 and 107
- resazurin conversion (Supplementary Figure 7D) (HepG2; HepG2 AAGLY D30, 10 uM): 74 and 89.9 and 83.3 and 84.8 and 74.9 and 104.6
- resazurin conversion (Supplementary Figure 7D) (HepG2; HepG2 AAGLY D30, 30 uM): 79.1 and 100.2 and 93 and 115.8 and 83.4 and 116.8
- resazurin conversion (Supplementary Figure 7D) (HepG2; HepG2 AAGLY D30, 50 uM): 83.1 and 117.7 and 95.2 and 107.4 and 94.4 and 118.1
- resazurin conversion (Supplementary Figure 7D) (HepG2; HepG2 AAGLY D30, 100 uM): 64.7 and 70 and 66.6 and 77.3 and 64.4 and 73.3
- resazurin conversion (Supplementary Figure 7D) (HepG2; HepG2 AAGLY D30, 300 uM): 29.5 and 32.5 and 30.3 and 31.2 and 30.4 and 32
- resazurin conversion (Supplementary Figure 7D) (HepG2; HepG2 AAGLY D30, 600 uM): 29.5 and 33.9 and 30.8 and 32.7 and 30.9 and 34.9
- resazurin conversion (Supplementary Figure 7D) (HepG2; HepG2 AAGLY D30, 1200 uM): 31 and 33.3 and 30.9 and 31.3 and 30.2 and 34.1
- resazurin conversion (Supplementary Figure 7D) (HepG2; HepG2 CTL D7, 3 uM): 96.5
- resazurin conversion (Supplementary Figure 7D) (HepG2; HepG2 CTL D7, 5 uM): 108.7 and 103 and 108 and 101.8 and 110.4 and 108.6
- resazurin conversion (Supplementary Figure 7D) (HepG2; HepG2 CTL D7, 10 uM): 100.5 and 91 and 96 and 94.6 and 100.7 and 102
- resazurin conversion (Supplementary Figure 7D) (HepG2; HepG2 CTL D7, 30 uM): 107.7 and 102.1 and 104.6 and 106.5 and 111.7 and 103.3
- resazurin conversion (Supplementary Figure 7D) (HepG2; HepG2 CTL D7, 50 uM): 106.3 and 99.2 and 103.6 and 101.1 and 106.7 and 102.4
- resazurin conversion (Supplementary Figure 7D) (HepG2; HepG2 CTL D7, 100 uM): 21.4 and 9.6 and 9.2 and 17 and 16.3 and 15.4
- resazurin conversion (Supplementary Figure 7D) (HepG2; HepG2 CTL D7, 300 uM): 8.5 (3×) and 8.1 and 8.3 and 8.2
- resazurin conversion (Supplementary Figure 7D) (HepG2; HepG2 CTL D7, 600 uM): 8.3 and 8 (2×) and 8.4 and 7.9 (2×)
- resazurin conversion (Supplementary Figure 7D) (HepG2; HepG2 CTL D7, 1200 uM): 9.4 and 9.5 and 9.7 and 9.2 and 9.3 and 9.1
